What all share (experiment): biochemical
Holding throughout (set-up): KINOMEscan competition binding panel (Eurofins DiscoverX), single concentration, percent inhibition
Holding throughout (details): read-out: 15 at 1 µM % inhibition

For assay [1], the target named is T1, ABL1(F317L)-phosphorylated (Homo sapiens, UniProt P00519, F317L).
T1 construct: phosphorylated
Put shortly: (§1)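 Compounds were submitted at 1 µM to a KINOMEscan assay covering more than 400 human kinases. The screen served to define the selectivity profile.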

The next assay addresses ACVRL1 (Homo sapiens, UniProt P37023). Put shortly: as §1
A further assay has as its target ANKK1 (Homo sapiens, UniProt Q8NFD2). The gist of the method: as §1
The next assay has as its target BMX (Homo sapiens, UniProt P51813). The gist of the method:
as §1

A further assay concerns the target BRSK1 (Homo sapiens, UniProt Q8TDC3). The gist of the method:
as §1

The next assay deals with CAMK1G (Homo sapiens, UniProt Q96NX5). The gist of the method:
as §1

A further assay concerns the target T2, CDC2L2 (Homo sapiens, UniProt Q9UQ88).
T2 construct: gene CDK11A
Put shortly:
as §1

In the next assay the target is CDK9 (Homo sapiens, UniProt P50750). The gist of the method: as §1
For another assay, the target named is CLK2 (Homo sapiens, UniProt P49760). The gist of the method:
as §1

For assay [2], the target named is EGFR(L747-S752del, P753S) (Homo sapiens, UniProt P00533, DEL747-752/P753S). Put shortly: as §1
Another assay addresses EGFR(L861Q) (Homo sapiens, UniProt P00533, L861Q). Put shortly: as §1
A further assay concerns the target EPHB3 (Homo sapiens, UniProt P54753). The gist of the method: as §1
Another assay deals with FLT3(D835V) (Homo sapiens, UniProt P36888, D835V). The gist of the method:
as §1

The target of the next assay is KIT(A829P) (Homo sapiens, UniProt P10721, A829P). Put shortly: as §1
The target of the next assay is LIMK2 (Homo sapiens, UniProt P53671). The gist of the method: as §1
The next assay deals with MAPKAPK2 (Homo sapiens, UniProt P49137). The gist of the method:
as §1

A further assay concerns the target MET (Homo sapiens, UniProt P08581). Put shortly:
as §1

Another assay deals with PAK4 (Homo sapiens, UniProt O96013). The gist of the method:
as §1

The next assay deals with PRKCI (Homo sapiens, UniProt P41743). Put shortly: as §1
The target in another assay is PRKCQ (Homo sapiens, UniProt Q04759). The gist of the method:
as §1

The target in another assay is PRKD1 (Homo sapiens, UniProt Q15139). The gist of the method: as §1
Another assay addresses PRKD2 (Homo sapiens, UniProt Q9BZL6). The gist of the method:
as §1

For another assay, the target named is RIPK2 (Homo sapiens, UniProt O43353). Put shortly:
as §1

The target of another assay is SRMS (Homo sapiens, UniProt Q9H3Y6). The gist of the method: as §1

SMILES strings stand for the structures.

Chain of PAK4 (O96013 whole entry): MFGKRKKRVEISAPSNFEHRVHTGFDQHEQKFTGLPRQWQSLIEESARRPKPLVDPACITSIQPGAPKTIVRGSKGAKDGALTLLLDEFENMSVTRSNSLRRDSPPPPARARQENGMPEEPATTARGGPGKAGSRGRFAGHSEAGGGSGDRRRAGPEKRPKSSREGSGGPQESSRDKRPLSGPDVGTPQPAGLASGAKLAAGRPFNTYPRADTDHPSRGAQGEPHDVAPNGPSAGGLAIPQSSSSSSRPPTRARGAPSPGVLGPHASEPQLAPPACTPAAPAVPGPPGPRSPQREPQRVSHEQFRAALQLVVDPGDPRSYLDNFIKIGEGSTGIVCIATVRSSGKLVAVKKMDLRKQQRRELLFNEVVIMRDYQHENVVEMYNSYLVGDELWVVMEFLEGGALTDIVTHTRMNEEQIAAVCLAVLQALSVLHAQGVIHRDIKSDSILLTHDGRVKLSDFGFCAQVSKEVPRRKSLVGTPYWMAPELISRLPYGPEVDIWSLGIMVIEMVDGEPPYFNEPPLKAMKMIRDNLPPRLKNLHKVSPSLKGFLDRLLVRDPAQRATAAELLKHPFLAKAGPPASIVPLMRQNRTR
Chain of EPHB3 (P54753 whole entry): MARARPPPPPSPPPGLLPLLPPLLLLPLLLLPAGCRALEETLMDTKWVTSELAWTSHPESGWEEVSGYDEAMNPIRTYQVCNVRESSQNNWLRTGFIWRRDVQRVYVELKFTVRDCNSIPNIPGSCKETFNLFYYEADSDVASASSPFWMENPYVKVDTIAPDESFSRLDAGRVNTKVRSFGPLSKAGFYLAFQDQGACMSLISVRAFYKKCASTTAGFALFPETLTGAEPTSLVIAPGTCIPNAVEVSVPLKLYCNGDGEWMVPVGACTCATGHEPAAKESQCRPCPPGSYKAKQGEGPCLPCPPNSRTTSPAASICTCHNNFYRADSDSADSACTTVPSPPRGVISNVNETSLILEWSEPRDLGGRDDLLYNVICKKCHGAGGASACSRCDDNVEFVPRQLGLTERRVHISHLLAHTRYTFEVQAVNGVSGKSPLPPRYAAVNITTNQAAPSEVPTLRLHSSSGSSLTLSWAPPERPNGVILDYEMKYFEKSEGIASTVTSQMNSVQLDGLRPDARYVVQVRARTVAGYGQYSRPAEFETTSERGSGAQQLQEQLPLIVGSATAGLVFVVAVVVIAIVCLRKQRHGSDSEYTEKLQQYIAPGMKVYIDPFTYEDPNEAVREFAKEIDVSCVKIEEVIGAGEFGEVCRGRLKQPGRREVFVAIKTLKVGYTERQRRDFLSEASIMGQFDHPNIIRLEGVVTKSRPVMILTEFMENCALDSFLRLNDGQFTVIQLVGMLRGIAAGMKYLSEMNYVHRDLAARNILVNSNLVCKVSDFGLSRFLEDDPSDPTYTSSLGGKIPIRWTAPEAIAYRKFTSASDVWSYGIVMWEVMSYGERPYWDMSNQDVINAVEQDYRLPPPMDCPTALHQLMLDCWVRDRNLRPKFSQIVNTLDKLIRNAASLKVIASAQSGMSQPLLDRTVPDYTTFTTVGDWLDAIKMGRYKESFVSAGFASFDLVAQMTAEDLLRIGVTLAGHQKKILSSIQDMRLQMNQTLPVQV
Chain of KIT(A829P) (P10721 whole entry A829P): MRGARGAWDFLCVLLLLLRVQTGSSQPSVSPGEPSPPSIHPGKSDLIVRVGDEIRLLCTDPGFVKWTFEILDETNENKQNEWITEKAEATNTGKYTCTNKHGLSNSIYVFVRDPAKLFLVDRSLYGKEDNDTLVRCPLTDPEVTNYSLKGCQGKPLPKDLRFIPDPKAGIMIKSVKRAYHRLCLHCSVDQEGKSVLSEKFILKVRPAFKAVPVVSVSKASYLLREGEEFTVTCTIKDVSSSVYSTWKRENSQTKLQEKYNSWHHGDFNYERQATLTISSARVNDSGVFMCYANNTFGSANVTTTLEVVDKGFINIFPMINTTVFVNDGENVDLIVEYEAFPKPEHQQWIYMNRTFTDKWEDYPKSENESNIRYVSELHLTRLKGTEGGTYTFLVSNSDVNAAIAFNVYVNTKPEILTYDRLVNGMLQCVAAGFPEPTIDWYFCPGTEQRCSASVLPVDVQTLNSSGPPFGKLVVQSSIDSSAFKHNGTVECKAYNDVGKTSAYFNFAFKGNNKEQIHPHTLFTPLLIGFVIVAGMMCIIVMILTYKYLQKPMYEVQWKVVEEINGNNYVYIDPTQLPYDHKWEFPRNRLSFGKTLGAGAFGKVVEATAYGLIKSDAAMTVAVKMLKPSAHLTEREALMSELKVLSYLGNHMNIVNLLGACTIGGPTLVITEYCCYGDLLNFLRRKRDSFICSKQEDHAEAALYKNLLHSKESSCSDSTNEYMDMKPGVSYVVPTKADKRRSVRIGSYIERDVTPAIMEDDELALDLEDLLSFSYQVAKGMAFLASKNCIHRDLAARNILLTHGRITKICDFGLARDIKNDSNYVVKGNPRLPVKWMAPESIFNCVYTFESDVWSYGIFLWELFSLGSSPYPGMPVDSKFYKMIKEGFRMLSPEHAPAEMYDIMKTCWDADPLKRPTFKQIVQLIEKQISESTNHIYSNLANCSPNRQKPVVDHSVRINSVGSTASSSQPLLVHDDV
Chain of MET (P08581 whole entry): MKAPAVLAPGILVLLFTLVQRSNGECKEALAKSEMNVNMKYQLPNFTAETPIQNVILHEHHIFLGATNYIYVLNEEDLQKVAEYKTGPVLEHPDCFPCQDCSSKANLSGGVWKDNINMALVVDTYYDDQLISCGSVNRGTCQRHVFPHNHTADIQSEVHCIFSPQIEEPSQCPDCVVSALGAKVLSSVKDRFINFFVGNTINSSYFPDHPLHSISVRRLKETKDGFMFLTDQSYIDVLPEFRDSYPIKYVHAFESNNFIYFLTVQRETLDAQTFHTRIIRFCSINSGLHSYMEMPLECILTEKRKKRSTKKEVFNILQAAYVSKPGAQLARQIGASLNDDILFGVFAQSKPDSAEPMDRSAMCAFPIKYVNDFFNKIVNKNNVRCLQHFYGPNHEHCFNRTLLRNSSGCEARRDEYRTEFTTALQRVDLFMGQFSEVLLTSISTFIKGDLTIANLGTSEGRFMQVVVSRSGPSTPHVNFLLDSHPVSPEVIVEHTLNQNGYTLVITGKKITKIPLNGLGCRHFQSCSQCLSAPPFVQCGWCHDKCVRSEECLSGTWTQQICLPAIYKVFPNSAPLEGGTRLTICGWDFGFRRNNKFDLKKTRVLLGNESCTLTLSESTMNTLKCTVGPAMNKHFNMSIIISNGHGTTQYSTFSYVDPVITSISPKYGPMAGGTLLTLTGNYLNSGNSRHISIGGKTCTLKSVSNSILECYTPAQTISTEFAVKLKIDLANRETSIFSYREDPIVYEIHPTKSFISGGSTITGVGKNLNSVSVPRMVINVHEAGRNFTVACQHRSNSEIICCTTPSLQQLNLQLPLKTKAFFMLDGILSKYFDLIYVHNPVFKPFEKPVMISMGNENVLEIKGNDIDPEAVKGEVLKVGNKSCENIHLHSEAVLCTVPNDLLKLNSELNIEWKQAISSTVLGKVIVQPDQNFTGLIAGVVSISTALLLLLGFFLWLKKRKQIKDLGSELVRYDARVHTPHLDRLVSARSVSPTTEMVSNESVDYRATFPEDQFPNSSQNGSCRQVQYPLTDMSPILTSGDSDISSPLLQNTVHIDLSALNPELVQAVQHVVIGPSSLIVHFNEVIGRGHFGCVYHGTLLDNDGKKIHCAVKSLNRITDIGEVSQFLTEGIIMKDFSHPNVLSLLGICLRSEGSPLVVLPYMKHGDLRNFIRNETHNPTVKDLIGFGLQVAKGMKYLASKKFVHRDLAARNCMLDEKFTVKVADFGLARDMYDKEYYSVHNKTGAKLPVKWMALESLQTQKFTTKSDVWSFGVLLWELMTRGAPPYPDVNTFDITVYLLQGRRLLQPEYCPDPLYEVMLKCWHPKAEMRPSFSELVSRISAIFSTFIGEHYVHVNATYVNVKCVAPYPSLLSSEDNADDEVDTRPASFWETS
T1 sequence (P00519 whole entry F317L): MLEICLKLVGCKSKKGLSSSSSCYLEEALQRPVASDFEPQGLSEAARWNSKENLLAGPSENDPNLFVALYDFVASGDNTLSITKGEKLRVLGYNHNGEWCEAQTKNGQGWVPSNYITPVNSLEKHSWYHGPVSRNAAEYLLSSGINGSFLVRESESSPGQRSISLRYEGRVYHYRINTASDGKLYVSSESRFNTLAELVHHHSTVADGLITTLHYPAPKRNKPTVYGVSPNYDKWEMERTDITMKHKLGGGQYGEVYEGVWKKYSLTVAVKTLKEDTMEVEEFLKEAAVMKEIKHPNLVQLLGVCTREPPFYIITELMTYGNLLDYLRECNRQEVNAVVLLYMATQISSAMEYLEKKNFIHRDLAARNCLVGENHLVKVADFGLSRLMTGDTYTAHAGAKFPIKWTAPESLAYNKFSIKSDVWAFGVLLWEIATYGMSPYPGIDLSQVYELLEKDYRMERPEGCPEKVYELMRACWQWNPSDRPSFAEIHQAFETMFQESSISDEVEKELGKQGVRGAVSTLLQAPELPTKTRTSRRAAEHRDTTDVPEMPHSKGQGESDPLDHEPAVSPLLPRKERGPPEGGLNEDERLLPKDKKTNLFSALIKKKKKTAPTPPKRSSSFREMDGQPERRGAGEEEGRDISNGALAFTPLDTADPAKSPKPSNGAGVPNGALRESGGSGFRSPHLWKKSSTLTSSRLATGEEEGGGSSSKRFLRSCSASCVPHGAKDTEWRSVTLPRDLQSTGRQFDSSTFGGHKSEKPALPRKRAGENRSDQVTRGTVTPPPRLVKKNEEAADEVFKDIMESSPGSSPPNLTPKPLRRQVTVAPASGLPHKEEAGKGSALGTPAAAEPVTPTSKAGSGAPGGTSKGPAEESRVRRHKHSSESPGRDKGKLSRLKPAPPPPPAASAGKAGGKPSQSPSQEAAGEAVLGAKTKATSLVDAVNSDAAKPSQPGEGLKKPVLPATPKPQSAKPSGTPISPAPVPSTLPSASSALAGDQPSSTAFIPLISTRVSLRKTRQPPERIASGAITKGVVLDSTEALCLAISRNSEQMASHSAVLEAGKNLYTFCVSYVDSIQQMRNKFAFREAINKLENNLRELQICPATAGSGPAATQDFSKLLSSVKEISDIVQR

As usually defined, the inhibition is the change of the read-out against control, counted positive when it falls. For `CNS(=O)(=O)c1ccc(N(C)C)c(Nc2nc(C)nc3cc(OC)c(OC)cc23)c1` [compound 15, 3-((6,7-dimethoxy-2-methylquinazolin-4-yl)amino)-4-(dimethylamino)-N-methylbenzenesulfonamide], the inhibition at 1 µM in [1] amounted to 0%; at ACVRL1, 0%; on ANKK1 it was 24%; on BMX it was 10%; on BRSK1, 0%; at CAMK1G, 0%. The inhibition at 1 µM was 0% at CDC2L2; 0% at CDK9; 0% on CLK2; 11% in assay [2]; 0% at EGFR(L861Q); 0% on EPHB3. For the same compound, the inhibition at 1 µM came to 37% on FLT3(D835V); 42% at KIT(A829P); 9% on LIMK2; 0% at MAPKAPK2; 0% on MET; 0% at PAK4. Further, the inhibition at 1 µM at PRKCI came to 25%; on PRKCQ, 16%; at PRKD1, 15%; at PRKD2 it was 13%; at RIPK2, 4%; at SRMS, 17%.

For the origin of these results see PMC7180948, “New Insights into 4-Anilinoquinazolines as Inhibitors of Cardiac Troponin I–Interacting Kinase (TNNi3K)” (Molecules, 2020).
